The source of these data is ChEMBL document CHEMBL4011611, “Plumbagin reduces osteopontin-induced invasion through inhibiting the Rho-associated kinase signaling pathway in A549 cells and suppresses osteopontin-induced lung metastasis in BalB/c mice” (Bioorg Med Chem Lett, 2017).

Data set [1] is filed under the species Homo sapiens. In words: Inhibition of FAK/AKT/ROCK in human H1299 cells assessed as reduction in osteopontin-induced cell invasion at 1 to 2 uM preincubated for 30 mins followed by osteopontin addition measured after 24 hrs by Diff-quick staining based matrigel-mediated Boyden chamber assay.
Data set [2] relates to A549. Kind of data set: Effect on total cofilin protein expression level in human A549 cells at 1 to 2 uM after 24 hrs by Western blot method. As to conditions: a549, 24 h. Format: ADME, cell-based. A general note: In western blotting, separated proteins are transferred to a membrane and probed.
Data set [3] concerns A549. Kind of data set: Inhibition of FAK/AKT/ROCK in human A549 cells assessed as reduction in osteopontin-induced cell invasion at 1 uM preincubated for 30 mins followed by osteopontin addition measured after 24 hrs by Diff-quick staining based matrigel-mediated Boyden chamber assay relative to control.
For data set [4], the system named is A549. Kind of data set: Anticancer activity against human A549 cells xenografted in BalB/c nude mouse assessed as reduction in osteopontin-induced lung metastasis at 5 mg/kg, ip administered once daily for 8 weeks by India ink staining based method. The data set is classed as functional, organism-based. In general terms: Xenograft models place foreign cells or tissue in a host animal.

Data set [5] in a line: Cytotoxicity against human A549 cells after 24 hrs by MTT assay. The data set is classed as cell-based. As to conditions: read-out: MNCC.
Another data set has as its system Mus musculus. In words: Toxicity in BalB/c nude mouse assessed as change in body weight at 5 mg/kg, ip administered once daily for 8 weeks measured every week of compound dosing. The data set is classed as organism-based. As to conditions: in vivo, 1344 h.
Data set [6] relates to A549. Kind of data set: Inhibition of FAK/AKT/ROCK in human A549 cells assessed as reduction in osteopontin-induced cell invasion at 2 uM preincubated for 30 mins followed by osteopontin addition measured after 24 hrs by Diff-quick staining based matrigel-mediated Boyden chamber assay relative to control.
Data set [7] concerns A549. Kind of data set: Inhibition of FAK/AKT/ROCK in human A549 cells assessed as reduction in osteopontin-induced cell motility at 2 uM preincubated for 30 mins followed by osteopontin addition measured after 24 hrs by Diff-quick staining based matrigel-mediated Boyden chamber assay relative to control.
Data set [8] concerns A549. In words: Effect on total AKT expression level in human A549 cells at 1 to 2 uM after 15 mins by Western blot method. The data set is classed as ADME, cell-based. As to conditions: a549, 0.25 h.
The subject of data set [9] is A549. Kind of data set: Inhibition of FAK/AKT/ROCK in human A549 cells assessed as reduction in osteopontin-induced cell motility at 1 uM preincubated for 30 mins followed by osteopontin addition measured after 24 hrs by Diff-quick staining based matrigel-mediated Boyden chamber assay relative to control.
Data set [10] is filed under the species Homo sapiens. Kind of data set: Inhibition of FAK/AKT/ROCK in human H1299 cells assessed as reduction in osteopontin-induced cell motility at 1 to 2 uM preincubated for 30 mins followed by osteopontin addition measured after 24 hrs by Diff-quick staining based matrigel-mediated Boyden chamber assay.
In data set [11] the target is RAC-alpha serine/threonine-protein kinase (Homo sapiens) (UniProt P31749). In words: Inhibition of osteopontin-induced AKT phosphorylation in human A549 cells at 1 to 2 uM after 15 mins by Western blot method. Format: cell-based.
In data set [12] the test system is A549. Kind of data set: Effect on total LIMK2 expression level in human A549 cells at 1 to 2 uM after 24 hrs by Western blot method. Format: ADME, cell-based. As to conditions: a549, 24 h.
Data set [13] concerns A549. In words: Effect on total FAK expression levels in human A549 cells at 1 to 2 uM measured after 15 mins by Western blot method. The data set is classed as ADME, cell-based. As to conditions: a549, 0.25 h.
The subject of data set [14] is A549. In words: Inhibition of FAK/AKT/ROCK in human A549 cells assessed as reduction in osteopontin-induced cofilin phosphorylation after 24 hrs by Western blot method. The data set is classed as cell-based.
For data set [15], the system named is A549. In words: Cytotoxicity against human A549 cells assessed as reduction in cell viability at 2 to 8 uM after 24 hrs by MTT assay. The data set is classed as cell-based. As to conditions: a549, 24 h.
The target in data set [16] is Focal adhesion kinase 1 (Homo sapiens) (UniProt Q05397). Kind of data set: Inhibition of osteopontin-induced FAK phosphorylation in human A549 cells at 1 to 2 uM after 15 mins by Western blot method. Format: cell-based.
Data set [17] has as its system A549. Kind of data set: Anti-invasive activity in human A549 cells assessed as reduction in osteopontin-induced ROCK1 expression after 24 hrs by Western blot method. Format: functional, cell-based.
In data set [18] the test system is A549. Kind of data set: Inhibition of FAK/AKT/ROCK in human A549 cells assessed as reduction in osteopontin-induced lamellipodia formation at 2 uM after 24 hrs by rhodamine phalloidin/DAPI staining based confocal microscopic analysis. Format: cell-based.
The subject of data set [19] is A549. In words: Inhibition of FAK/AKT/ROCK in human A549 cells assessed as reduction in osteopontin-induced LIMK1/2 phosphorylation after 24 hrs by Western blot method. The data set is classed as cell-based.

The source made the active and inactive calls. The rule behind the calls is not given here.

Sequence of RAC-alpha serine/threonine-protein kinase (Homo sapiens) (P31749 whole entry): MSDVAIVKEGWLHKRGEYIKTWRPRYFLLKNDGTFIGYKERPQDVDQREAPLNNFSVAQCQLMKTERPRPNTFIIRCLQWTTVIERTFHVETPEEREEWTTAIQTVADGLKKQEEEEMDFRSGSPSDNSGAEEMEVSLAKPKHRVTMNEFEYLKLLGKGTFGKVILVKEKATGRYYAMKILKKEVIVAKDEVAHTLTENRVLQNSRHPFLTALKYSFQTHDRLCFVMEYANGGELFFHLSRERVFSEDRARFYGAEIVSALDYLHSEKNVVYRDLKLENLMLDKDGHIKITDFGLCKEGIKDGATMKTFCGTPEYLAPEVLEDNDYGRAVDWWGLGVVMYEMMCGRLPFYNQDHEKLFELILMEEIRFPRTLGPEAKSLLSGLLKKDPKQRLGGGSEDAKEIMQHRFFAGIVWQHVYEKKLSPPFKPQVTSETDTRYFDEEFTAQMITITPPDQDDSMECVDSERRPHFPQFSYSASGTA
Sequence of Focal adhesion kinase 1 (Homo sapiens) (Q05397 2-1052 limits assumed): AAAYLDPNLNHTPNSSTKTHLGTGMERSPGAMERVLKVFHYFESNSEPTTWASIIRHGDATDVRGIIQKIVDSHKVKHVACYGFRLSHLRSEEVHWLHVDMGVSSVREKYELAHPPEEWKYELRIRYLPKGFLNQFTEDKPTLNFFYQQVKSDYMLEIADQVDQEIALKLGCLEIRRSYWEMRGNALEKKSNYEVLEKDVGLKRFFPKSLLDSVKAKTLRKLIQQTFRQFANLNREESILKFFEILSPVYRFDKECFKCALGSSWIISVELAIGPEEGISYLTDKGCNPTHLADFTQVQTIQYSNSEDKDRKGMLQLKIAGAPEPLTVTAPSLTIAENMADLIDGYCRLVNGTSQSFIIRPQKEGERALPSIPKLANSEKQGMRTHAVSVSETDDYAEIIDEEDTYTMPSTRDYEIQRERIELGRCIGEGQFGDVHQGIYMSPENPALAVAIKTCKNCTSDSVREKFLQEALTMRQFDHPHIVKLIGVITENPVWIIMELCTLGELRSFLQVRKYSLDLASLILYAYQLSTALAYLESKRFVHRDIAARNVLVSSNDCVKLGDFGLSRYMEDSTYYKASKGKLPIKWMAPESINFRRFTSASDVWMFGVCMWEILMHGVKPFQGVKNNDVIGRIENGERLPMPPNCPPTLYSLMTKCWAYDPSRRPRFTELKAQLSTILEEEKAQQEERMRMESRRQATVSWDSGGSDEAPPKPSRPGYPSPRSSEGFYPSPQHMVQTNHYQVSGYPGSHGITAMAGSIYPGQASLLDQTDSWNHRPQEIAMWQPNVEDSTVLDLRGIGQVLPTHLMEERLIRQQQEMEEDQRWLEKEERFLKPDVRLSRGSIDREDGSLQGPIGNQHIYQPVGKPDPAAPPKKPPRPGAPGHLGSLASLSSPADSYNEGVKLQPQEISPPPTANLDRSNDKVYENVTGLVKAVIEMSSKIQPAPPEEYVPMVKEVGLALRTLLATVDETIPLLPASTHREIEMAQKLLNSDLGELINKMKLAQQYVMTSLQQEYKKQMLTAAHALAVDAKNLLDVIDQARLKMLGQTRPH

What is called inhibition is the relative decrease from the control value, in per cent. Consider `CC1=CC(=O)c2c(O)cccc2C1=O` [PLUMBAGIN], for which the inhibition result (in the data set listed under Homo sapiens [1]; in the data set listed under Homo sapiens [10]; in [11]; in data set [16]; with A549 [18]) was “Active” in each case. The Activity entry in the data set with A549 [2] is on record as “Non-Toxic”; in the data set with Mus musculus it was “Non-Toxic”; in the data set with A549 [8] it was “Non-Toxic”; in the data set on A549 [12], “Non-Toxic”; in the data set on A549 [13] it was “Non-Toxic”; in the data set on A549 [15] it was “Dose-dependent effect”. The Activity result in the data set on A549 [17] is “Dose-dependent effect”. For the same compound, the inhibition in the data set on A549 [3] was 38%; with A549 [6], 67%; in the data set on A549 [7], 74%; with A549 [9], 52%; with A549 [14], “Dose-dependent effect”; in the data set on A549 [19], “Dose-dependent effect”. Also, the outcome with A549 [4] was Active. For the same compound, the MNTC at 24 h in data set [5] was not above 2000 nM.
